# System: vaginal atrophy in female ovariectomized Wistar Han rats
# Assay: Assay I: assessment of the effect on vaginal atrophy (vaginal smears: cornified cells, maturation index, overall trophism)
# Format: in vivo, rat
# Details: dose 10 times less than the usual dose; rats of both groups (cream and gel)
# Method: In this study a total of 8 female ovariectomized Wistar Han rats were used, which were randomly distributed into 2 groups with 4 animals each. Group A was treated with Formulation 1 whereas Group B was treated with Formulation 2.
# After 18 days had elapsed from the reception of the ovariectomized animals, several vaginal smears were periodically performed in each rat, until the menopausal condition (particularly vaginal atrophy) was verified in all the rats, determining the maturation index of the vaginal epithelium.
# Once the treatment had started, Formulations 1 (0.005% estriol cream) and 2 (0.005% estriol gel) were administered to experimental Group A and B, respectively, once a day for 5 days. The administration was carried out by vaginal route, in an amount of 5.8 mg of formulation/animal (corresponding to 0.29 μg of estriol/animal), using a positive displacement multipipette equipped with a special tip. […]
# The effect of the treatment with each of the formulations was assessed by means of the appearance of cornified cells, the determination of the maturation index of the vaginal epithelium and the evaluation of the overall trophism.
structure (smiles),measurement,value
C[C@]12CC[C@@H]3c4ccc(O)cc4CC[C@H]3[C@@H]1C[C@@H](O)[C@@H]2O [estriol],Effect on vaginal atrophy condition,reverses the vaginal atrophy condition
